Test results reported in PubChem BioAssay (NCI).
Values joined by “and” are separate entries in the source; they are usually repeats but may differ in a detail not shown here. Equal values may be shown once.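 Compound exposure: 48 hours, 5 concentrations, 96-well plates. GI50 is the concentration that inhibits growth by half. At the TGI there is no net growth.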

Tested on: MDA-MB-468 breast
Assay: NCI-60 cell line screen, 48 h

O=C1Cc2cc(CCn3cncn3)c(Cl)cc2N1
GI50: 2180 nM | TGI: 9540 nM

Oc1[nH]c2ccccc2c1/C=c1/ccc2c(c1)N=C(c1ccc(C(F)(F)F)cc1)N=2
GI50: 2390 nM | TGI: 14700 nM

CN(C)Cc1ccc(NC(=O)c2cncc(C#Cc3cnc(N)c4ncccc34)c2)cc1F
GI50: 7720 nM | TGI: 25700 nM

CS(=O)(=O)c1cccc(Nc2ncc3cc(-c4ccccc4Cl)ccc3n2)c1
GI50: 2070 nM | TGI: 19600 nM

COc1cc2ncnc(Nc3ccc(Oc4ccnc(C)c4)c(C)c3)c2cc1NC(=O)CC1CCSS1 (configuration not stated)
GI50: 784 nM | TGI: 1730 nM

COc1ccc2c(O)c(/C=C3\N=Nc4ncccc43)oc2c1C[C@@H]1CCNC[C@H]1F
GI50: 308 nM | TGI: 1430 nM

c1ccc(-c2n(Cc3ccc4ccccc4c3)c3ccccc3[n+]2Cc2ccc3ccccc3c2)cc1
GI50: 134 nM | TGI: 703 nM

Cc1ccc(Cl)c(NS(=O)(=O)c2ccc(-c3cnc(C4CC4)o3)cc2)c1
GI50: 45.2 nM | TGI: 7110 nM

Clc1cccc(CNc2c3ccccc3nc3ccccc23)c1
GI50: 1280 nM | TGI: 3130 nM

CCCCCCCCCCNCCSS(=O)(=O)O
GI50: 2450 nM | TGI: 6280 nM

NCCCNc1nc2ccccc2c2c(=O)c3cccc(Cl)c3sc12
GI50: 837 nM | TGI: 2250 nM

COc1cc(-c2nc3ccccc3o2)cc(CN2CCCCC2)c1O
GI50: 3240 nM | TGI: 22800 nM

Cc1nc2sc3c(N)ncnc3c2c(C)c1C
GI50: > 25000 nM | TGI: > 25000 nM

COc1ccc(S(=O)(=O)Nc2c(/C=C\c3cc(OC)c(OC)c(OC)c3)ccc(OC)c2O)cc1
GI50: 43.9 nM | TGI: 17600 nM

CCC(=O)N1C/C(=C/c2ccc(Br)cc2)C(=O)/C(=C/c2ccc(Br)cc2)C1
GI50: 371 nM | TGI: 1230 nM

COc1ccc(C(=O)c2cc3c(N)c(C(=O)Nc4cccc(Br)c4C)sc3nc2C)cc1
GI50: 40.4 nM

Nc1ncc(-c2ccc3ncnc(N4CCc5ccc(Cl)cc54)c3c2)cc1C(F)(F)F
GI50: 299 nM | TGI: 2680 nM

Nc1cc(F)ccc1NC(=O)c1ccc(NC(=O)C/C=C/c2cccnc2)cn1
GI50: 911 nM | TGI: 2500 nM

CCN(CC)c1ccc(-c2cc(-c3cc(OC)c(OC)c(OC)c3)nc(N3CCC(O)CC3)c2C#N)cc1
GI50: 987 nM | TGI: 3210 nM

CCN1C(=O)N(CC)C2C1NN=c1s/c(=C3\C(=O)N(C4CCCC4)c4ccccc43)c(=O)n12 (configuration not stated)
GI50: 325 nM | TGI: 2450 nM

C#C[C@@]1(O)[C@@H](CO)O[C@@H](n2cc(C(F)(F)F)c3c(N)ncnc32)[C@@H]1O
GI50: 280 nM | TGI: 1900 nM

COc1ccccc1[As]=[As]c1ccccc1OC (configuration not stated)
GI50: 19.9 nM | TGI: 47.4 nM

N#Cc1nc(C#N)c(Sc2ccccc2)c(Sc2ccccc2)c1Sc1ccccc1
GI50: 1910 nM | TGI: 5800 nM

Cn1cc(C2=C(c3cn(CCCN)c4ccccc34)C(=O)NC2=O)c2ccccc21
GI50: 3700 nM | TGI: 7940 nM

Clc1ccc2c(c1)N(C1CCCN(Cc3ccccc3)C1)c1ccccc1S2 (configuration not stated)
GI50: 2690 nM | TGI: 9510 nM

C=C1C(=O)O[C@H]2[C@H]1CC/C(COC(=O)/C=C\C(=O)NCc1ccc(Cn3c(=O)sn(CCI)c3=O)cc1)=C\CC[C@@]1(C)O[C@@H]21
GI50: 2390 nM | TGI: 5850 nM

O=C(Nc1cc(F)c(F)cc1C(=O)O)c1ccc(-n2ccnc2)nn1
GI50: > 100000 nM | TGI: > 100000 nM

O=C(/C=C/c1ccccn1)c1ccc(OCc2nnc(-c3ccc(Cl)cc3)o2)cc1
GI50: 1710 nM | TGI: 3560 nM

C=CCNC1=C2C[C@@H](C)C[C@H](OC)[C@H](O)[C@@H](C)/C=C(\C)[C@H](OC(N)=O)[C@@H](OC)/C=C\C=C(/C)C(=O)NC(=CC1=O)C2=O
GI50: 209 nM | TGI: 1830 nM

CCCCOc1ccc(/C=N/Nc2cc(C)nc3ccc(Br)cc23)cc1
GI50: 1670 nM | TGI: 3220 nM

O=C1Nc2ccccc2/C1=C\c1nc(-c2ccccc2F)n2ccccc12
GI50: 1540 nM | TGI: 5510 nM

CNC(=O)c1c(F)cccc1Nc1nc(Nc2cc3c(cc2OC)CCN3C(=O)CN(C)C)nc2[nH]ccc12
GI50: 2340 nM | TGI: 8850 nM

Fc1ccc(-c2nn3ccccc3c2-c2ccncc2)cc1
GI50: 11000 nM | TGI: > 25000 nM

CCN(CC)CCN1c2nc3ccccc3cc2Sc2cc3ccccc3nc21
GI50: 1790 nM | TGI: 5330 nM

N=C(N)c1ccc(-c2ccc(-c3ccc4ccccc4c3)s2)s1
GI50: 2380 nM | TGI: 5200 nM

COc1ccc(-c2cc(-c3ccc(Cl)cc3)nc(NCCCCNc3ccnc4cc(Cl)ccc34)n2)cc1
GI50: 1720 nM | TGI: 4300 nM

COc1ccc(C2C(C#N)=C(N)Oc3c2sc2c(Br)cccc32)cc1 (configuration not stated)
GI50: 1860 nM | TGI: 5550 nM

CCOc1ccc(C(C[N+](=O)[O-])Sc2ccccc2N)cc1 (configuration not stated)
GI50: 2110 nM | TGI: 4790 nM

CC[C@H](C)[C@H](NC(=O)[C@H]1CCCCN1C)C(=O)N(C)[C@H](C[C@@H](OC(C)=O)c1cccc(C(=O)N[C@@H](Cc2ccccc2)C[C@H](C)C(=O)O)n1)C(C)C
GI50: 0.353 nM and 2.5 nM

c1ccc(Oc2ccc(Nc3ncc(-c4ccccc4)o3)cc2)cc1
GI50: > 25000 nM | TGI: > 25000 nM

O=C(NCCOCCOCCOCCNC(=O)c1cc2c(o1)C(=O)c1ccccc1C2=O)NC12CC3CC(CC(C3)C1)C2
GI50: 1080 nM | TGI: 4370 nM

Cn1c(=O)c(Oc2ccc(F)cc2F)cc2cnc(N[C@@H]3CCOC3)nc21
GI50: > 25000 nM | TGI: > 25000 nM
